Results taken from ChEMBL document CHEMBL3588848, “Dihydropyrrolopyrazol-6-one MCHR1 antagonists for the treatment of obesity: Insights on in vivo efficacy from a novel FLIPR assay setup” (Bioorg Med Chem Lett, 2015).
Values belong to the molecule of their own block, whether it stands above or below them.

Key:
[1] = tested on: Rattus norvegicus; test: Antiobesity activity in Sprague-Dawley rat assessed as body weight loss at 15 mg/kg, po qd administered 1 hr prior to onset of dark cycle measured for 7 days relative to vehicle-treated control; type: functional
[2] = Plasma concentration in Sprague-Dawley rat at 15 mg/kg, po qd measured at 20 hrs post dose; type: ADME, organism-based
[3] = Drug uptake in Sprague-Dawley rat brain at 15 mg/kg, po qd measured at 20 hrs post dose; type: ADME, organism-based; conditions: read-out: Drug uptake
[4] = Lipophilicity, log P of the compound by HPLC analysis; type: physicochemical
[5] = Fraction unbound in Sprague-Dawley rat plasma at 15 mg/kg, po qd; type: ADME, organism-based
[6] = Displacement of [Phe13, [125I]Tyr19]-MCH from human MCHR1 E4Q/A5T double mutant expressed in HEK293 cell membranes after 90 mins by scintillation counting analysis
[7] = tested on: Plasma; test: Plasma concentration in Sprague-Dawley rat assessed as 2-(4-chlorophenyl)-5-(4-(2-hydroxy-2-methylpropoxy)-3-methoxyphenyl)-4,5-dihydropyrrolo[3,4-c]pyrazol-6(2H)-one at 30 mg/kg, po qd measured at 20 hrs post dose; type: ADME, organism-based; conditions: in vivo
[8] = biological target: T1, Melanin-concentrating hormone receptor 1 (Rattus norvegicus, UniProt P97639); test: Antagonist activity at rat MCHR1 assessed as 2-(4-chlorophenyl)-5-(4-(2-hydroxy-2-methylpropoxy)-3-methoxyphenyl)-4,5-dihydropyrrolo[3,4-c]pyrazol-6(2H)-one
T1 sequence (P97639 whole entry): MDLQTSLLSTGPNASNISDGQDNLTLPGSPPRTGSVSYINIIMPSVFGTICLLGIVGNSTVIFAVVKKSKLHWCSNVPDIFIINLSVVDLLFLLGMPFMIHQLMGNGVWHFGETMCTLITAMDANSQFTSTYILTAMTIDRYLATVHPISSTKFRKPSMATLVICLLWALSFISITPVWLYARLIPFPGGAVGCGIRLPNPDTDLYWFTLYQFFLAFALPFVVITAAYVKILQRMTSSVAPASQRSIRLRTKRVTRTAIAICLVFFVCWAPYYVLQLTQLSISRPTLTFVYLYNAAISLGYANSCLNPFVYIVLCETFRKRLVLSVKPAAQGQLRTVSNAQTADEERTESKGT

[9] = tested on: Brain; test: Drug uptake in Sprague-Dawley rat brain assessed as 2-(4-chlorophenyl)-5-(4-(2-hydroxy-2-methylpropoxy)-3-methoxyphenyl)-4,5-dihydropyrrolo[3,4-c]pyrazol-6(2H)-one at 30 mg/kg, po qd measured at 20 hrs post dose; type: ADME, organism-based; conditions: in vivo, read-out: Drug uptake
[10] = tested on: Rattus norvegicus; test: Antiobesity activity in Sprague-Dawley rat assessed as 2-(4-chlorophenyl)-5-(4-(2-hydroxy-2-methylpropoxy)-3-methoxyphenyl)-4,5-dihydropyrrolo[3,4-c]pyrazol-6(2H)-one-mediated body weight loss at 30 mg/kg, po qd administered 1 hr prior to onset of dark cycle measured for 4 days relative to vehicle-treated control; type: functional
[11] = tested on: Plasma; test: Fraction unbound in Sprague-Dawley rat plasma assessed as 2-(4-chlorophenyl)-5-(4-(2-hydroxy-2-methylpropoxy)-3-methoxyphenyl)-4,5-dihydropyrrolo[3,4-c]pyrazol-6(2H)-one at 30 mg/kg, po qd; type: ADME, organism-based; conditions: in vivo
[12] = biological target: Melanin-concentrating hormone receptor 1 (Homo sapiens, UniProt Q99705); test: Antagonist activity at human MCHR1 expressed in HEK293 cells assessed as inhibition of MCH-stimulated Ca2+ influx preincubated for 120 mins followed by MCH challenge by FLIPR assay; type: functional, cell-based
Chain of Melanin-concentrating hormone receptor 1 (Homo sapiens, UniProt Q99705) (Q99705 whole entry): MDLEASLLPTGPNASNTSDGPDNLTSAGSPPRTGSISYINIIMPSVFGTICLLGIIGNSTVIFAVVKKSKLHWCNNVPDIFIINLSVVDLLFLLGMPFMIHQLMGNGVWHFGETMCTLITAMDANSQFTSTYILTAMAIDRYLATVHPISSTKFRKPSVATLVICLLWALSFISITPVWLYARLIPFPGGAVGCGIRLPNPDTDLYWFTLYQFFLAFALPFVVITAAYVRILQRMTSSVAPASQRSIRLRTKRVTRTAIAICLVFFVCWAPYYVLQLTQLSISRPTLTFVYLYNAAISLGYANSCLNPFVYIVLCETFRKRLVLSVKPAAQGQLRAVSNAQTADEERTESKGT

[13] = biological target: T2, hERG (KCNH2) (Homo sapiens, UniProt Q12809); test: Inhibition of human ERG expressed in CHO cells at 0.3 uM by automated whole-cell patch clamp electrophysiology system relative to control; type: cell-based; conditions: CHO cells expressing human ERG
T2 sequence (Q12809 whole entry): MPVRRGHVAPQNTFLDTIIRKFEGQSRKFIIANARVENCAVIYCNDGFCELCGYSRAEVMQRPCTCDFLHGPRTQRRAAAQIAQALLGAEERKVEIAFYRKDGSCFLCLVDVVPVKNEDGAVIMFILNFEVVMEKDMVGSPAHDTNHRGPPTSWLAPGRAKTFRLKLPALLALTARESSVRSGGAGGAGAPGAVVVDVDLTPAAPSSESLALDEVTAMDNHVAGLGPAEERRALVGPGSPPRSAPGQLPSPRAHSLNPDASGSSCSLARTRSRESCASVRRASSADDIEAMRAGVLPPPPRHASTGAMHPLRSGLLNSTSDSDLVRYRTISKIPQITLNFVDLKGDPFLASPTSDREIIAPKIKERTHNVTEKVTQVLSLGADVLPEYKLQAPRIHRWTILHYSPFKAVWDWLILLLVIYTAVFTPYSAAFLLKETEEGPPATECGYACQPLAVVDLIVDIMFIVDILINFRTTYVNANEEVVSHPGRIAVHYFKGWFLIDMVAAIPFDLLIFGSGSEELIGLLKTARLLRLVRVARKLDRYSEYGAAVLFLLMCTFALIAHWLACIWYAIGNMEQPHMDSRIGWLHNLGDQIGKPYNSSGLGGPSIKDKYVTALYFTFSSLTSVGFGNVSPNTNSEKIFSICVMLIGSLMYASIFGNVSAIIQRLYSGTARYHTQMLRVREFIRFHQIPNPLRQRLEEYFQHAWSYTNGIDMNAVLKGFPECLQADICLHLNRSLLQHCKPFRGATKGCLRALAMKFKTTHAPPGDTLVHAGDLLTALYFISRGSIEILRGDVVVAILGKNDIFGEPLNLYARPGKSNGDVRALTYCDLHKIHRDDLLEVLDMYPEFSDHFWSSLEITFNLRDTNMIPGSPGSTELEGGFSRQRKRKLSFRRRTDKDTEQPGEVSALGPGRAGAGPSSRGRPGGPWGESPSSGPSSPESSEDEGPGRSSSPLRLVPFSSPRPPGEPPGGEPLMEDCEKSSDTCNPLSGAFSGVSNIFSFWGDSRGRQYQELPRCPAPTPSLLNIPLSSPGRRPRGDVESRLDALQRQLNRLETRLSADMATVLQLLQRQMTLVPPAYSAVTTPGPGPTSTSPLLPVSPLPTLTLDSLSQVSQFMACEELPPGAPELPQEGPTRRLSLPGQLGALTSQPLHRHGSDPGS

[14] = tested on: Rattus norvegicus; test: Antiobesity activity in Sprague-Dawley rat assessed as body weight loss at 1 mg/kg, po qd administered 1 hr prior to onset of dark cycle measured for 7 days relative to vehicle-treated control; type: functional
[15] = tested on: Rattus norvegicus; test: Antiobesity activity in Sprague-Dawley rat assessed as body weight loss at 10 mg/kg, po qd administered 1 hr prior to onset of dark cycle measured for 7 days relative to vehicle-treated control; type: functional
[16] = biological target: T2, hERG (KCNH2); test: Inhibition of human ERG expressed in CHO cells at 1 uM by automated whole-cell patch clamp electrophysiology system relative to control; type: cell-based; conditions: CHO cells expressing human ERG
[17] = Drug uptake in Sprague-Dawley rat brain at 10 mg/kg, po qd measured at 20 hrs post dose; type: ADME, organism-based; conditions: read-out: Drug uptake
[18] = biological target: T1, Melanin-concentrating hormone receptor 1; test: Antagonist activity at rat MCHR1
[19] = Drug uptake in Sprague-Dawley rat brain at 3 mg/kg, po qd measured at 20 hrs post dose; type: ADME, organism-based; conditions: read-out: Drug uptake
[20] = Fraction unbound in Sprague-Dawley rat plasma at 1 mg/kg, po qd; type: ADME, organism-based
[21] = Fraction unbound in Sprague-Dawley rat plasma at 10 mg/kg, po qd; type: ADME, organism-based
[22] = Fraction unbound in Sprague-Dawley rat plasma at 3 mg/kg, po qd; type: ADME, organism-based
[23] = Plasma concentration in Sprague-Dawley rat at 1 mg/kg, po qd measured at 20 hrs post dose; type: ADME, organism-based
[24] = Ratio of unbound concentration in Sprague-Dawley rat brain at 3 mg/kg, po qd to Ki for rat MCHR1; type: ADME, organism-based; conditions: in vivo
[25] = tested on: Brain; test: Drug uptake in Sprague-Dawley rat brain at 1 mg/kg, po qd measured at 20 hrs post dose; type: ADME, organism-based; conditions: in vivo, BLD = below limit of detection
[26] = tested on: Rattus norvegicus; test: Antiobesity activity in Sprague-Dawley rat assessed as body weight loss at 3 mg/kg, po qd administered 1 hr prior to onset of dark cycle measured for 7 days relative to vehicle-treated control; type: functional
[27] = Plasma concentration in Sprague-Dawley rat at 3 mg/kg, po qd measured at 20 hrs post dose; type: ADME, organism-based
[28] = Ratio of unbound concentration in Sprague-Dawley rat brain at 10 mg/kg, po qd to Ki for rat MCHR1; type: ADME, organism-based; conditions: in vivo
[29] = Plasma concentration in Sprague-Dawley rat at 10 mg/kg, po qd measured at 20 hrs post dose; type: ADME, organism-based
[30] = biological target: Voltage-gated inwardly rectifying potassium channel KCNH2 (Homo sapiens, UniProt Q12809); test: Inhibition of human ERG expressed in CHO cells by automated whole-cell patch clamp electrophysiology system; type: cell-based
Chain of Voltage-gated inwardly rectifying potassium channel KCNH2 (Q12809 whole entry): as above

[31] = tested on: Rattus norvegicus; test: Antiobesity activity in Sprague-Dawley rat assessed as 6-(4-chlorophenyl)-3-(4-(2-hydroxy-2-methylpropoxy)-3-methoxyphenyl)thieno[3,2-d]pyrimidin-4(3H)-one-mediated body weight loss at 10 mg/kg, po qd administered 1 hr prior to onset of dark cycle measured for 7 days relative to vehicle-treated control; type: functional
[32] = biological target: T1, Melanin-concentrating hormone receptor 1; test: Antagonist activity at rat MCHR1 assessed as 6-(4-chlorophenyl)-3-(4-(2-hydroxy-2-methylpropoxy)-3-methoxyphenyl)thieno[3,2-d]pyrimidin-4(3H)-one
[33] = Ratio of drug level in brain to plasma in Sprague-Dawley rat assessed as 6-(4-chlorophenyl)-3-(4-(2-hydroxy-2-methylpropoxy)-3-methoxyphenyl)thieno[3,2-d]pyrimidin-4(3H)-one at 10 mg/kg, po qd measured at 20 hrs post dose
[34] = tested on: Brain; test: Drug uptake in Sprague-Dawley rat brain assessed as 6-(4-chlorophenyl)-3-(4-(2-hydroxy-2-methylpropoxy)-3-methoxyphenyl)thieno[3,2-d]pyrimidin-4(3H)-one at 10 mg/kg, po qd measured at 20 hrs post dose; type: ADME, organism-based; conditions: in vivo
[35] = tested on: Plasma; test: Fraction unbound in Sprague-Dawley rat plasma assessed as 6-(4-chlorophenyl)-3-(4-(2-hydroxy-2-methylpropoxy)-3-methoxyphenyl)thieno[3,2-d]pyrimidin-4(3H)-one at 10 mg/kg, po qd; type: ADME, organism-based; conditions: in vivo
[36] = Ratio of unbound concentration in Sprague-Dawley rat brain assessed as 6-(4-chlorophenyl)-3-(4-(2-hydroxy-2-methylpropoxy)-3-methoxyphenyl)thieno[3,2-d]pyrimidin-4(3H)-one at 10 mg/kg, po qd to Ki for rat MCHR1 assessed as 6-(4-chlorophenyl)-3-(4-(2-hydroxy-2-methylpropoxy)-3-methoxyphenyl)thieno[3,2-d]pyrimidin-4(3H)-one; type: ADME, organism-based; conditions: in vivo
[37] = tested on: Plasma; test: Plasma concentration in Sprague-Dawley rat assessed as 6-(4-chlorophenyl)-3-(4-(2-hydroxy-2-methylpropoxy)-3-methoxyphenyl)thieno[3,2-d]pyrimidin-4(3H)-one at 10 mg/kg, po qd measured at 20 hrs post dose; type: ADME, organism-based; conditions: in vivo

- concentration at 20 h [2]: 378 nM
- concentration at 20 h [3]: 654 nM
- logP [4]: 3.5
- fraction unbound [5]: 0.012
Structure (SMILES): COc1cc(-n2cnc3cc(-c4ccc(Cl)cc4)sc3c2=O)ccc1OCCN1CCCC1
- Activity [1]: 8.7%
- Ki [6]: 1 nM

- concentration [7]: 2560 nM
- Ki [8]: 3.8 nM
- concentration [9]: 1060 nM
- Fu [11]: 1%
Structure (SMILES): COc1cc(N2Cc3cn(-c4ccc(Cl)cc4)nc3C2=O)ccc1OCC(C)(C)OC(=O)CN
- Activity [10]: 1.8%

Structure (SMILES): COc1cc(N2Cc3cn(-c4ccc(Cl)cc4)nc3C2=O)ccc1OCC(C)O (configuration not stated)
- Ki [6]: 13 nM

- IC50 [12]: 1170 nM
Structure (SMILES): COc1cc(N2Cc3cn(-c4ccc(Cl)cc4)nc3C2=O)ccc1OCC(C)(C)O
- Ki [6]: 8 nM

Structure (SMILES): COc1cc(N2Cc3cn(-c4ccc(Cl)cc4)nc3C2=O)ccc1OC[C@H](O)C1CC1
- Ki [6]: 9 nM

Structure (SMILES): COc1cc(N2Cc3cn(-c4ccc(Cl)cn4)nc3C2=O)ccc1OCC(C)(C)O
- Ki [6]: 44 nM

- logP [4]: 2.8
- IC50 [12]: 3060 nM
Structure (SMILES): COc1cc(N2Cc3cn(-c4ccc(Cl)cc4)nc3C2=O)ccc1OCCN1CCCC1
- inhibition at 0.3 µM [13]: 58%
- Ki [6]: 0.42 nM

Structure (SMILES): COc1cc(N2Cc3nn(-c4ccc(Cl)cc4)cc3C2=O)ccc1OCC(C)O (configuration not stated)
- Ki [6]: 334 nM

Structure (SMILES): COc1cc(N2Cc3nn(-c4ccc(Cl)cc4)cc3C2=O)ccc1OCC(C)(C)O
- Ki [6]: 107 nM

Structure (SMILES): COc1cc(N2Cc3nn(-c4ccc(Cl)cc4)cc3C2=O)ccc1OC[C@H](O)C1CC1
- Ki [6]: 41 nM

Structure (SMILES): COc1cc(N2Cc3nn(-c4ccc(Cl)cc4)nc3C2=O)ccc1OCC(C)(C)O
- Ki [6]: 34 nM

- logP [4]: 3.3
Structure (SMILES): COc1cc(N2Cc3nn(-c4ccc(Cl)cc4)nc3C2=O)ccc1OCCN1CCCC1
- inhibition at 0.3 µM [13]: 68%
- Ki [6]: 2.3 nM

- concentration at 20 h [17]: 2770 nM
- Ki [18]: 0.8 nM
- concentration at 20 h [19]: 739 nM
- IC50 [12]: 241 nM
- fraction unbound [20]: 0.042
- fraction unbound [21]: 0.042
- fraction unbound [22]: 0.042
- concentration at 20 h [23]: 131 nM
- Ratio [24]: 39
- Drug uptake [25]: BLD
- concentration at 20 h [27]: 574 nM
- Ratio [28]: 145
- concentration at 20 h [29]: 1580 nM
Structure (SMILES): CN[C@H]1CCN(c2ccc(N3Cc4cn(-c5ccc(Cl)cc5)nc4C3=O)cn2)C1
- Activity [14]: 2.2%
- Activity [15]: 7.5%
- inhibition at 1 µM [16]: 66%
- Activity [26]: 3.8%
- Ki [6]: 0.96 nM

Structure (SMILES): CN[C@@H]1CCN(c2ccc(N3Cc4cn(-c5ccc(Cl)cc5)nc4C3=O)cn2)C1
- inhibition at 1 µM [16]: 50%
- Ki [6]: 1.3 nM

Structure (SMILES): CN(C)[C@H]1CCN(c2ccc(N3Cc4cn(-c5ccc(Cl)cc5)nc4C3=O)cn2)C1
- inhibition at 1 µM [16]: 50%
- Ki [6]: 0.7 nM

Structure (SMILES): N[C@H]1CCN(c2ccc(N3Cc4cn(-c5ccc(Cl)cc5)nc4C3=O)cn2)C1
- inhibition at 1 µM [16]: 58%
- Ki [6]: 2.1 nM

Structure (SMILES): CNC1CCN(c2ccc(N3Cc4cn(-c5ccc(Cl)cc5)nc4C3=O)cc2)C1 (configuration not stated)
- inhibition at 0.3 µM [13]: 51%
- Ki [6]: 0.8 nM

Structure (SMILES): CC(=O)N(C)C1CCN(c2ccc(N3Cc4cn(-c5ccc(Cl)cc5)nc4C3=O)cn2)C1 (configuration not stated)
- inhibition at 1 µM [16]: 23%
- Ki [6]: 6.5 nM

Structure (SMILES): CC(C)(C)NC1CCN(c2ccc(N3Cc4cn(-c5ccc(Cl)cc5)nc4C3=O)cn2)C1 (configuration not stated)
- inhibition at 1 µM [16]: 71%
- Ki [6]: 2.7 nM

Structure (SMILES): COc1cc(N2Cc3cn(-c4ccc(Cl)cc4)nc3C2=O)ccc1N1CC[C@@H](O)C1
- IC50 [30]: > 80000 nM
- Ki [6]: 7.1 nM

Structure (SMILES): COc1cc(N2Cc3cn(-c4ccc(Cl)cc4)nc3C2=O)ccc1N1C[C@H](O)[C@@H](O)C1
- inhibition at 1 µM [16]: < 5%
- IC50 [30]: > 30000 nM
- Ki [6]: 11 nM

- IC50 [12]: 13 nM
Structure (SMILES): COc1cc(-n2cnc3cc(-c4ccc(Cl)cc4)sc3c2=O)ccc1OCC(C)(C)O
- Ki [6]: 7.9 nM

- Ki [32]: 7.2 nM
- BPR [33]: 1.7
- Drug uptake [34]: 1610 nM
- Fu [35]: 0.7%
- Ratio [36]: 1.6
- concentration [37]: 546 nM
Structure (SMILES): COc1cc(-n2cnc3cc(-c4ccc(Cl)cc4)sc3c2=O)ccc1OCC(C)(C)OC(=O)CN
- Activity [31]: 8.8%

Structure (SMILES): COc1cc(N2Cc3nn(-c4ccc(Cl)cc4)nc3C2=O)ccc1OCC(O)C1CC1 (racemic)
- Ki [6]: 112 nM
